Tests used:
ovulation [1] = assay: Anti-ovulatory activity in proestrus rats (oviducts inspected for ova); type: in vivo, Sprague-Dawley CD rats; conditions: single administration at 1200 hours of proestrus
Experimental: The product of Example 2 was injected subcutaneously, in corn oil, as a single administration at 1200 hours on the day of proestrus (at least 2.5 hours prior to the commencement of the ovulatory LH surge). The rats were sacrificed on the morning of estrus (the day following proestrus) and the oviducts were inspected for the presence of ova under a dissecting microscope. The number of animals ovulating and the percent inhibition were as follows: […]

LH-RH = conditions: in vitro; cited from earlier work
ovulation [2] = conditions: administered at noon of proestrus; cited from earlier work
[3] = test system: leuteinizing hormone (LH) release; conditions: LH-RH = 100 percent; cited from earlier work

Substance: D-(5-Oxoprolyl)-D-phenylalanyl-D-3-(1-naphthyl)-alanyl-L-seryl-L-tyrosyl-D- 3-(1-naphthyl)-alanyl-L-leucyl-L-arginyl-L-prolyl-glycine acetate salt [Example 2]
- number of animals ovulating (ovulation [1]; 375 μg s.c. in corn oil): 5/6
- percent inhibition of ovulation (ovulation [1]; 375 μg s.c. in corn oil): 17%
- number of animals ovulating (ovulation [1]; 500 μg s.c. in corn oil): 6/20
- percent inhibition of ovulation (ovulation [1]; 500 μg s.c. in corn oil): 70%
- number of animals ovulating (ovulation [1]; 1000 μg s.c. in corn oil): 1/14
- percent inhibition of ovulation (ovulation [1]; 1000 μg s.c. in corn oil): 93%

Substance: [D-pGlu^1, D-Phe^2, D-Trp^3,6 ]-LH-RH
- IDR50 (inhibitory molar dose ratio antagonist/LH-RH) (LH-RH): 3/1
- effective dose for in vivo inhibition of ovulation (ovulation [2]): 20 to 25 mg

Substance: Nal(1)^3 -LH-RH
- potency as LH releasing agent relative to LH-RH [3]: 187.1%

— patent publication US4253997A, “Anti-ovulatory decapeptides” (American Home Products Corporation, priority 1979, dated 1981)
